Where a SMILES comes first, the peptide text is derived from it.

The IC50 is the point on the concentration scale where inhibition reaches its midpoint.

The first assay has as its target HLA-A*0301 (Homo sapiens, UniProt P04439). The assay is described as follows: biochemical. Format: binding. The settings on record: allele A*0301; cell-free competition, fluorescence polarization at 72 hours; Non-binder = no dose-dependent inhibition; read-out: IC50. A digest of the protocol: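 Cell-free competition assay: HLA heat-treated 53°C for 15 min to strip endogenous peptides, then mixed with fluorescent high-affinity control peptide and test peptides for 72 h to equilibrium. Displacement read by fluorescence polarization as percent inhibition; IC50 derived from a concentration range.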
In the case of `CC[C@H](C)[C@H](NC(=O)[C@H](CC(=O)O)NC(=O)[C@@H](NC(=O)[C@H](Cc1c[nH]cn1)NC(=O)[C@H](CO)NC(=O)[C@H](CC(C)C)NC(=O)[C@@H](N)CCCNC(=N)N)[C@@H](C)O)C(=O)N[C@@H](Cc1c[nH]cn1)C(=O)N[C@@H](CCCCN)C(=O)O` [EBA175_1214] (H-RLSHTDIHK-OH), the concentration for half-maximal inhibition (IC50) came to 1740 nM.
Still for that read-out and setting: then `CC[C@H](C)[C@H](N)C(=O)N[C@@H](CC(C)C)C(=O)N[C@@H](CC(N)=O)C(=O)N[C@@H](CC(N)=O)C(=O)N[C@@H](CO)C(=O)N[C@@H](CCCCN)C(=O)N[C@@H](Cc1ccccc1)C(=O)N[C@@H](CC(N)=O)C(=O)N[C@@H](CCCCN)C(=O)O` [EBA175_0069] (H-ILNNSKFNK-OH), with 420 nM.

The assay is the same for the next values; noted with them: allele A*0301; fluorescence polarization competition.
Consider PSHNSFIKK [RH5_101], for which the “IC50 (nM), in vitro HLA binding affinity” value was “Non-Binder”.
Still for that read-out and setting: with NVNFLQYHFK [RH5_141] the entry was “Non-Binder”.

The same assay, now with this note: allele A*0301; fluorescence polarization competition; read-out: IC50 (nM), in vitro HLA binding affinity.
On to `CC(C)C[C@H](NC(=O)[C@H](CC(N)=O)NC(=O)[C@@H](NC(=O)[C@H](CC(C)C)NC(=O)[C@H](CC(C)C)NC(=O)[C@@H](N)CC(C)C)[C@@H](C)O)C(=O)N[C@@H](CC(N)=O)C(=O)N[C@@H](CCCCN)C(=O)N[C@@H](CCCCN)C(=O)O` [RH5_392] (H-LLLTNLNKK-OH), for which the IC50 is 14100 nM.
The same measure, in the same setting: then `CC(C)C[C@H](NC(=O)[C@H](CC(C)C)NC(=O)[C@H](CCC(=O)O)NC(=O)[C@H](CC(=O)O)NC(=O)[C@H](CCCCN)NC(=O)[C@H](CCC(N)=O)NC(=O)[C@H](Cc1ccccc1)NC(=O)[C@@H](NC(=O)[C@@H](N)CCCNC(=N)N)[C@@H](C)O)C(=O)N[C@@H](CCCCN)C(=O)O` [RH5_448] (H-RTFQKDELLK-OH), with 24200 nM; and `CC[C@H](C)[C@H](NC(=O)[C@H](CO)NC(=O)[C@H](CC(N)=O)NC(=O)[C@H](Cc1ccc(O)cc1)NC(=O)[C@H](CO)NC(=O)[C@@H](N)CC(C)C)C(=O)N[C@@H](Cc1ccc(O)cc1)C(=O)N[C@@H](Cc1c[nH]cn1)C(=O)N[C@@H](CCCCN)C(=O)O` [RH5_188] (H-LSYNSIYHK-OH), with 3070 nM; and `CC(C)C[C@H](NC(=O)[C@@H]1CCCN1C(=O)[C@H](CC(C)C)NC(=O)[C@H](CO)NC(=O)[C@@H](NC(=O)[C@H](Cc1ccc(O)cc1)NC(=O)[C@H](CO)NC(=O)[C@H](CO)NC(=O)[C@@H](N)CC(C)C)C(C)C)C(=O)N[C@@H](CCCCN)C(=O)O` [CYRPA_161] (H-LSSYVSLPLK-OH), with 654 nM.
Same read-out and setting: then `CC(C)C[C@H](NC(=O)[C@H](Cc1ccccc1)NC(=O)[C@H](C)NC(=O)[C@@H](N)CO)C(=O)N1CCC[C@H]1C(=O)N[C@H](C(=O)NCC(=O)N[C@@H](C)C(=O)N[C@@H](Cc1ccccc1)C(=O)N[C@@H](CCCCN)C(=O)O)[C@@H](C)O` [AMA1_377] (H-SAFLPTGAFK-OH), with 345 nM; and `CC[C@H](C)[C@H](NC(=O)[C@@H](N)CC(C)C)C(=O)N[C@@H](CS)C(=O)NCC(=O)N[C@H](C(=O)N[C@@H](CO)C(=O)N1CCC[C@H]1C(=O)N[C@@H](Cc1ccc(O)cc1)C(=O)N[C@@H](CCCCN)C(=O)O)C(C)C` [CYRPA_178] (H-LICGVSPYK-OH), with 419 nM.
The same measure, in the same setting: with `CC(C)C[C@H](NC(=O)[C@H](CO)NC(=O)[C@H](CCC(=O)O)NC(=O)[C@@H](NC(=O)[C@@H](NC(=O)[C@H](Cc1ccc(O)cc1)NC(=O)[C@H](CCCCN)NC(=O)[C@H](CC(C)C)NC(=O)[C@@H](N)CCCCN)C(C)C)[C@@H](C)O)C(=O)N[C@@H](CCCCN)C(=O)O` [RIPR_0425] (H-KLKYVTESLK-OH) the figure was 3340 nM; with `CC[C@H](C)[C@H](NC(=O)[C@H](CC(=O)O)NC(=O)[C@@H]1CCCN1C(=O)[C@H](CC(C)C)NC(=O)[C@@H](NC(=O)[C@@H](N)CO)[C@@H](C)CC)C(=O)N[C@@H](CC(N)=O)C(=O)N[C@@H](CCCCN)C(=O)N[C@@H](CO)C(=O)N[C@@H](CCCCN)C(=O)O` [RIPR_0500] (H-SILPDINKSK-OH), 12700 nM; with `CC[C@H](C)[C@H](NC(=O)[C@H](CCCCN)NC(=O)[C@@H](NC(=O)[C@@H](N)Cc1c[nH]cn1)[C@@H](C)O)C(=O)N[C@H](C(=O)N[C@@H](CC(N)=O)C(=O)N[C@@H](CC(=O)O)C(=O)N[C@@H](CCCCN)C(=O)N[C@H](C(=O)N[C@@H](CCCCN)C(=O)O)[C@@H](C)O)[C@@H](C)CC` [RH5_427] (H-HTKIINDKTK-OH), 73000 nM.
As to `CC[C@H](C)[C@H](NC(=O)[C@H](CO)NC(=O)[C@H](CC(N)=O)NC(=O)[C@H](Cc1ccc(O)cc1)NC(=O)[C@H](CO)NC(=O)[C@H](CC(C)C)NC(=O)[C@@H](N)Cc1c[nH]cn1)C(=O)N[C@@H](Cc1ccc(O)cc1)C(=O)N[C@@H](Cc1c[nH]cn1)C(=O)N[C@@H](CCCCN)C(=O)O` [RH5_187] (H-HLSYNSIYHK-OH), the half-maximal inhibitory concentration (IC50) was found to be 44200 nM.
Consider `CC[C@H](C)[C@H](NC(=O)[C@@H](N)Cc1c[nH]cn1)C(=O)N[C@@H](Cc1ccc(O)cc1)C(=O)N[C@H](C(=O)N[C@@H](CCC(N)=O)C(=O)N[C@@H](CCCCN)C(=O)N[C@@H](CCCCN)C(=O)N[C@H](C(=O)N[C@@H](CCCCN)C(=O)O)C(C)C)C(C)C` [CYRPA_076] (H-HIYVQKKVK-OH), for which the IC50 was 897 nM.
The same measure, in the same setting: with `CC[C@H](C)[C@H](NC(=O)[C@H](Cc1ccc(O)cc1)NC(=O)[C@@H](NC(=O)[C@H](Cc1ccc(O)cc1)NC(=O)[C@H](CO)NC(=O)CN)[C@@H](C)CC)C(=O)N[C@@H](CC(=O)O)C(=O)N[C@H](C(=O)N[C@H](C(=O)N[C@@H](CCCCN)C(=O)O)[C@@H](C)CC)[C@@H](C)O` [RH5_402] (H-GSYIYIDTIK-OH) the figure was 70800 nM.
Take `CC[C@H](C)[C@H](NC(=O)[C@H](CC(N)=O)NC(=O)[C@H](CC(C)C)NC(=O)[C@@H](N)CCCCN)C(=O)N[C@@H](Cc1c[nH]c2ccccc12)C(=O)N[C@@H](CCCNC(=N)N)C(=O)N[C@H](C(=O)N[C@@H](Cc1ccccc1)C(=O)N[C@@H](CCC(N)=O)C(=O)N[C@@H](CCCCN)C(=O)O)[C@@H](C)O` [RH5_443] (H-KLNIWRTFQK-OH): the IC50 was determined as 2500 nM.
Same read-out and setting: then `CC(C)C[C@H](NC(=O)[C@H](Cc1ccc(O)cc1)NC(=O)[C@H](CCC(N)=O)NC(=O)[C@H](CC(N)=O)NC(=O)CNC(=O)[C@@H](NC(=O)[C@H](C)NC(=O)[C@@H](NC(=O)[C@@H]1CCCN1)C(C)C)[C@@H](C)O)C(=O)N[C@@H](CCCCN)C(=O)O` [AMA1_168] (H-PVATGNQYLK-OH), with 328000 nM; and `CC[C@H](C)[C@H](NC(=O)[C@H](CC(=O)O)NC(=O)[C@H](CC(N)=O)NC(=O)[C@H](CS)NC(=O)[C@H](CCCCN)NC(=O)[C@H](CO)NC(=O)[C@H](CCCCN)NC(=O)[C@@H](NC(=O)[C@@H](N)CCCCN)C(C)C)C(=O)N[C@@H](CCCCN)C(=O)O` [RH5_219] (H-KVKSKCNDIK-OH), with 39300 nM; and `CC(C)[C@H](NC(=O)[C@@H](N)CS)C(=O)N[C@@H](CS)C(=O)N[C@H](C(=O)N[C@@H](Cc1ccc(O)cc1)C(=O)N[C@@H](CC(N)=O)C(=O)N[C@@H](Cc1ccc(O)cc1)C(=O)N[C@@H](Cc1ccc(O)cc1)C(=O)N[C@@H](CCCCN)C(=O)N[C@@H](CCCCN)C(=O)O)[C@@H](C)O` [RIPR_0924] (H-CVCTYNYYKK-OH), with 14400 nM.

Values taken from article PMC8294059, “Identification and Immune Assessment of T Cell Epitopes in Five Plasmodium falciparum Blood Stage Antigens to Facilitate Vaccine Candidate Selection and Optimization” (Frontiers in Immunology, 2021).
